According to the CheMixHub viscosity set:

Test: xn = mol fraction of the nth substance listed

NC(N)=O + CN(C)C=O
101 kPa
Settings	viscosity [mPa·s]
293.15 K, x1 = 0.00259	0.8641
293.15 K, x1 = 0.004089	0.8696
293.15 K, x1 = 0.005542	0.8749
293.15 K, x1 = 0.007625	0.8829
293.15 K, x1 = 0.008542	0.8861
293.15 K, x1 = 0.009703	0.8909
293.15 K, x1 = 0.01132	0.8964
293.15 K, x1 = 0.01367	0.906
298.15 K, x1 = 0.002771	0.8095
298.15 K, x1 = 0.00599	0.8163
298.15 K, x1 = 0.0088	0.8219
298.15 K, x1 = 0.01098	0.8295
298.15 K, x1 = 0.01142	0.8371
298.15 K, x1 = 0.01232	0.8421
298.15 K, x1 = 0.01349	0.8468
298.15 K, x1 = 0.0148	0.8557
303.15 K, x1 = 0.001637	0.7596
303.15 K, x1 = 0.003093	0.7641
303.15 K, x1 = 0.004755	0.7693
303.15 K, x1 = 0.005964	0.7728
303.15 K, x1 = 0.007418	0.7775
303.15 K, x1 = 0.008306	0.7799
303.15 K, x1 = 0.01015	0.7857
303.15 K, x1 = 0.01168	0.7908
308.15 K, x1 = 0.001989	0.7171
308.15 K, x1 = 0.003566	0.7214
308.15 K, x1 = 0.005107	0.7257
308.15 K, x1 = 0.006768	0.73
308.15 K, x1 = 0.008236	0.7345
308.15 K, x1 = 0.009277	0.7372
308.15 K, x1 = 0.01039	0.7403
308.15 K, x1 = 0.01098	0.7421

CCCCCCCCCCO + CO
viscosity [mPa·s], 101 kPa
Settings	298.15 K	308.15 K	318.15 K
x2 = 0.05	10.38	7.137	5.136
x2 = 0.1	9.75	6.75	4.899
x2 = 0.15	9.096	6.352	4.649
x2 = 0.2	8.429	5.944	4.39
x2 = 0.25	7.757	5.531	4.121
x2 = 0.3	7.086	5.115	3.847
x2 = 0.35	6.425	4.699	3.567
x2 = 0.4	5.779	4.287	3.285
x2 = 0.45	5.154	3.88	3.003
x2 = 0.5	4.554	3.481	2.721
x2 = 0.55	3.984	3.093	2.443
x2 = 0.6	3.448	2.719	2.171
x2 = 0.65	2.947	2.36	1.905
x2 = 0.7	2.485	2.02	1.649
x2 = 0.75	2.063	1.7	1.405
x2 = 0.8	1.681	1.403	1.174
x2 = 0.85	1.34	1.131	0.958
x2 = 0.9	1.038	0.886	0.76
x2 = 0.95	0.776	0.669	0.582

NC(N)=O + CO
viscosity [mPa·s], 101 kPa
Settings	293.15 K	298.15 K	303.15 K	308.15 K	313.15 K	318.15 K	323.15 K
x1 = 0.08238	0.924	0.849	0.781	0.721	0.668	0.62	0.576
x1 = 0.09642	–	0.9735	0.8914	0.8215	0.7546	0.6953	–
x1 = 0.1034	1.031	0.942	0.864	0.794	0.732	0.677	0.627
x1 = 0.1289	1.164	1.064	0.975	0.896	0.826	0.764	0.707
x1 = 0.138	–	1.222	1.111	1.019	0.9311	0.8588	–

CCCCCCCCCCCC + COC(=O)OC
298.15 K, 101.3 kPa
Settings	viscosity [mPa·s]
x2 = 0.0451	1.266
x2 = 0.0943	1.206
x2 = 0.1375	1.157
x2 = 0.225	1.079
x2 = 0.3467	0.977
x2 = 0.4784	0.877
x2 = 0.6212	0.775
x2 = 0.7364	0.697
x2 = 0.8599	0.633
x2 = 0.9441	0.602

CCCCCCCCCCO + COC(=O)OC
viscosity [mPa·s], 100 kPa
Settings	x2 = 0.1001	x2 = 0.2001	x2 = 0.3	x2 = 0.4	x2 = 0.5002	x2 = 0.6	x2 = 0.7001	x2 = 0.8	x2 = 0.9
303.15 K	7.04	5.107	3.812	2.818	2.121	1.582	1.196	0.901	0.683
308.15 K	5.988	4.394	3.309	2.477	1.885	1.423	1.084	0.831	0.637
313.15 K	5.091	3.804	2.897	2.191	1.686	1.288	0.991	0.772	0.596
318.15 K	4.385	3.313	2.552	1.953	1.519	1.167	0.913	0.716	0.559
323.15 K	3.777	2.903	2.258	1.751	1.37	1.069	0.843	0.667	0.526

CCOC(=O)OCC + COC(=O)OC
298.15 K, 101 kPa
Settings	viscosity [mPa·s]
x1 = 0.0355	0.585
x1 = 0.0848	0.594
x1 = 0.1396	0.603
x1 = 0.2098	0.615
x1 = 0.2886	0.628
x1 = 0.3619	0.641
x1 = 0.4542	0.657
x1 = 0.5424	0.672
x1 = 0.6375	0.689
x1 = 0.7315	0.706
x1 = 0.838	0.726
x1 = 0.8896	0.736
x1 = 0.9462	0.747

COCCOCCO + COC(=O)OC
298.15 K, 101.33 kPa
Settings	viscosity [mPa·s]
x1 = 0.0093	0.598
x1 = 0.0245	0.612
x1 = 0.037	0.623
x1 = 0.0694	0.655
x1 = 0.0966	0.685
x1 = 0.1283	0.723
x1 = 0.1675	0.774
x1 = 0.1922	0.806
x1 = 0.2198	0.848
x1 = 0.3005	0.984
x1 = 0.3454	1.069
x1 = 0.3786	1.142
x1 = 0.3835	1.154
x1 = 0.4083	1.214
x1 = 0.4365	1.284
x1 = 0.4695	1.364
x1 = 0.5345	1.538
x1 = 0.584	1.681
x1 = 0.623	1.803
x1 = 0.6563	1.916
x1 = 0.7394	2.226
x1 = 0.7818	2.402
x1 = 0.8262	2.598
x1 = 0.8705	2.802
x1 = 0.8876	2.889
x1 = 0.9134	3.004
x1 = 0.9327	3.098
x1 = 0.9669	3.272

CCC#N + COC(C)=O
303.15 K, 101.33 kPa
Settings	viscosity [mPa·s]
x1 = 0.1119	0.35
x1 = 0.2022	0.3551
x1 = 0.2958	0.3608
x1 = 0.4008	0.3657
x1 = 0.4952	0.3692
x1 = 0.5946	0.3732
x1 = 0.6967	0.3773
x1 = 0.7985	0.3811
x1 = 0.9022	0.3857
